The record followed here is publication PMC11220606, “Understanding β-strand mediated protein–protein interactions: tuning binding behaviour of intrinsically disordered sequences by backbone modification” (Chemical Science, 2024).

In test [1] the target is T1, human SUMO-1_18–97 (SUMO) (Homo sapiens, UniProt P63165). Kind of test: Fluorescence anisotropy competition assay (FAM-SIM tracer displacement from SUMO). Conditions: for inhibitory potency relative to the parent SIM peptide (in words): fluorescence anisotropy competition assay, backbone N-methyl scan.
T1 sequence (P63165 18-97): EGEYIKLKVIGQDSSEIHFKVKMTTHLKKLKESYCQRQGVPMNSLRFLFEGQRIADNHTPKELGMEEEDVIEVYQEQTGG
Method: Fluorescence competition anisotropy data. The parent SIM peptide and its N-methylated variants were each
peptide (50 nM) in Tris-buffered saline (20 mM Tris, pH 8.0, 150 mM NaCl and 0.03% Triton-X).
Tris, 150 mM NaCl, 0.01 % Triton-X, pH 7.4 using 50 nM FAM PEG-SIM tracer and 3 μM SUMO protein.
Inhibitory potencies for N-methylated SIM peptides to SUMO. IC50 values were determined through competition
FA experiments (20 mm Tris, 150 mM NaCl, 0.03% Triton X, pH 8.0).
Competition binding assays were performed in triplicate within 384-well plates (Greiner Bio-one). Competitor
nM, 3 μM, 50 nM final concentrations of competitor, SUMO and tracer respectively). Control wells lacked
tracer. The plates were kept in the dark for at least 30 min before fluorescence polarisation was measured.
Labtech), with excitation at 482 nm (bandwidth = 16 nM) and emission at 530 nm (bandwidth = 40 nm). For
(bandwidth = 20 nM) and emission at 535 nm (bandwidth = 25 nm).
Perependicular (P) and parallel (S) intensities of the control wells were averaged and deducted from each
= Ssample – Sav. control). The total sample intensities (I) and anisotropies (r) were then calculated as follows:
Fluorescence anisotropy values were plotted against competitor peptide concentrations and fit to a logistic
function of the form Y = A2 + (A1 – A2) / (1 + (x/x0)p) for determination of half-maximal inhibitory concentrations
Note: To ensure a set of self-consistent IC50 values for comparison, experiments were performed using a single
batch of protein given subtle batch dependent variations in active concentration of protein.
Test [2] has as its target T1, human SUMO-1_18–97 (SUMO). Kind of test: Temperature dependence of NMR-derived exchange parameters (Van't Hoff and Eyring analysis). Conditions: 25 °C; for TΔS, Association (activation, kon) / TΔS, Dissociation (activation, koff) / ΔG, Association (activation, kon) / ΔG, Dissociation (activation, koff) / ΔH, Association (activation, kon) / ΔH, Dissociation (activation, koff): Eyring fit, ± SD of fitted parameter (Monte-Carlo), SD. The arrangement: human SUMO-1_18–97 (SUMO); His tag with TEV site (N, cleaved yes); made in house. The class given is binding. The source says:
Eyring plots were obtained for the temperature-dependence of the kon and koff rates (Fig. 5d and e), from which the association/dissociation activation enthalpies (ΔH^‡ass/ΔH^‡diss), activation/dissociation entropies (TΔS^‡ass/TΔS^‡diss), and thus activation/dissociation free energies (ΔG^‡ass/ΔG^‡diss), could be determined.

Test [3] deals with T1, human SUMO-1_18–97 (SUMO). Described as above. The arrangement: human SUMO-1_18–97 (SUMO); His tag with TEV site (N, cleaved yes); made in house. The class given is binding. Conditions: 25 °C; for TΔS, Binding (KD) / ΔH, Binding (KD): Van't Hoff fit, ± SD of fitted parameter (Monte-Carlo), SD.
Test [4] concerns the target T1, human SUMO-1_18–97 (SUMO). Kind of test: Relaxation-based NMR binding kinetics (15N ZZ-exchange for tighter binders, CPMG relaxation dispersion for weaker binders). The conditions noted are these: for koff / kon: pH 7.4.
From the text: Non-overlapping exchange cross-peaks were evident for a subset of residues when the ^15N magnetizations of the bound and unbound states were mixed following t1 (^15N) evolution (ZZ-exchange spectroscopy). Global fitting of the intensities of auto and cross peaks as a function of mixing time to McConnel equations (Fig. 3c, S8–S11; ESI ^† for methods) gave apparent first-order association k^appon and first-order dissociation koff rates for binding, which were converted to kon and dissociation equilibrium constants (KD).
All NMR spectra acquired using 15N-labelled protein samples were acquired at 5 °C, in 20 mM sodium
phosphate pH 7.4, 150 mM NaCl, 0.02% NaN3, on 750 or 600 MHz Bruker NMR spectrometers.
Protein and peptide NMR spectra were processed with NMRPipe and analysed in CcpNmr analysis.
15N ZZ-exchange spectroscopy
15N ZZ-exchange experiments were performed in an interleaved manner as described previously4 using mixing
times between 10 and 500 ms. Data were fit to a simple 2-state model:
where state A represents unbound SUMO and state B represents SUMO bound to SIM. The time-evolution of
the longitudinal magnetisations during mixing are described by the corresponding McConnel equations:4
𝑧 = 𝑘𝑎𝑝𝑝𝑀𝑏𝑎 ‒ 𝑀𝑏𝑏(𝑘 + 𝑅𝑏)
𝑧 = 𝑘 𝑀𝑏𝑏 ‒ 𝑀𝑏𝑎(𝑘𝑎𝑝𝑝 + 𝑅𝑎)
where is the𝑀𝑎𝑎𝑧 z-magnetization of unbound SUMO, is the𝑀𝑏𝑏𝑧 z-magnetization of bound SUMO, and , 𝑀𝑎𝑏𝑧
𝑧 are the z-magnetizations of the corresponding exchange cross-peaks. are11 the longitudinal relaxation
rates for states A and B, and are𝑜𝑛𝑜𝑓𝑓 the pseudo-first order association and dissociation rates,
respectively. Simple analytical solutions to the above equations are available4 and were used to fit the ZZ-
exchange data. Fitting parameters included , residue𝑜𝑛𝑜𝑓𝑓 specific rates,11 and scaling factors
𝐼𝑎𝑎, 𝐼𝑏𝑏 that incorporate any differences in the relaxation rates of the bound and unbound species. Scaling
factors for the exchange cross-peaks were 𝐼𝑎𝑏, 𝐼𝑏𝑎 not included as these were absent at the start of the mixing
period in all cases. Uncertainties in the fitted parameters were calculated using a Monte-Carlo approach based
on the noise of the experiment. Fitting was performed using in-house scripts written in Python employing the
LmFit module available at https://lmfit.github.io/lmfit-py/.

By IC50 is commonly meant the concentration needed to halve the response being measured. Low readings indicate higher potency, high ones lower potency. `CC[C@H](C)[C@H](NC(=O)[C@H](CCC(=O)O)NC(=O)[C@H](CC(N)=O)NC(=O)[C@H](CC(=O)O)N(C)C(C)=O)C(=O)N[C@@H](CCC(=O)O)C(=O)N[C@H](C(=O)N[C@H](C(=O)N[C@H](C(=O)N[C@H](C(=O)N[C@@H](Cc1c[nH]c2ccccc12)C(=O)N[C@@H](CCC(=O)O)C(=O)N[C@@H](CCCCN)C(=O)N[C@@H](CCCCN)C(N)=O)C(C)C)[C@@H](C)CC)[C@@H](C)CC)C(C)C` [Me-Asp2705] had an IC50 in test [1] of 12.6 ± 0.5 µM.

For `CC[C@H](C)[C@H](NC(=O)[C@H](CCC(=O)O)NC(=O)[C@H](CC(N)=O)NC(=O)[C@H](CC(=O)O)NC(C)=O)C(=O)N[C@@H](CCC(=O)O)C(=O)N[C@H](C(=O)N(C)[C@H](C(=O)N[C@H](C(=O)N[C@H](C(=O)N[C@@H](Cc1c[nH]c2ccccc12)C(=O)N[C@@H](CCC(=O)O)C(=O)N[C@@H](CCCCN)C(=O)N[C@@H](CCCCN)C(N)=O)C(C)C)[C@@H](C)CC)[C@@H](C)CC)C(C)C` [Me-Ile2711, Ac-DNEIEV(NMe)IIVWEKK-NH2], in test [1], the concentration for half-maximal inhibition (IC50) is > 300 µM and the “inhibitory potency relative to the parent SIM peptide (in words)” value is reported as “significantly diminished inhibitory potency”.

The Kd is a measure of binding affinity in units of concentration. Low values mean higher affinity, high ones lower affinity. The term koff denotes a measure of how fast the partners let go of each other. A higher koff goes with fast dissociation. The kon is a measure of how fast the partners come together. As for `CC[C@H](C)[C@H](NC(=O)[C@H](CCC(=O)O)NC(=O)[C@H](CC(N)=O)NC(=O)[C@H](CC(=O)O)NC(C)=O)C(=O)N[C@@H](CCC(=O)O)C(=O)N[C@H](C(=O)N[C@H](C(=O)N[C@H](C(=O)N[C@H](C(=O)N[C@@H](Cc1c[nH]c2ccccc12)C(=O)N[C@@H](CCC(=O)O)C(=O)N(C)[C@@H](CCCCN)C(=O)N[C@@H](CCCCN)C(N)=O)C(C)C)[C@@H](C)CC)[C@@H](C)CC)C(C)C` [Me-Lys2716], in test [2], the “TΔS, Association (activation, kon)” value was determined as 3.11 ± 0.048 kcal/mol; the “TΔS, Dissociation (activation, koff)” value is -9.2 ± 0.024 kcal/mol; the “ΔG, Association (activation, kon)” value is 8.46 ± 0.072 kcal/mol; the “ΔG, Dissociation (activation, koff)” value came to 13.5 ± 0.024 kcal/mol. Also, in test [2], the “ΔH, Association (activation, kon)” value came to 11.6 ± 0.048 kcal/mol and the “ΔH, Dissociation (activation, koff)” value is 4.28 ± 0.024 kcal/mol. In addition, the IC50 in test [1] is > 100 µM. Further, in test [3], the “TΔS, Binding (KD)” value was found to be 12.5 ± 0.048 kcal/mol and the “ΔH, Binding (KD)” value worked out at 7.5 ± 0.048 kcal/mol. In test [4], this compound returned a Kd of 510 ± 40 µM, a koff of 553 ± 17 s⁻¹ and a kon of 1.09e+06 ± 70000 M⁻¹ s⁻¹.

On to `CC[C@H](C)[C@H](NC(=O)[C@@H](NC(=O)[C@H](CCC(=O)O)NC(=O)[C@H]([C@@H](C)CC)N(C)C(=O)[C@H](CCC(=O)O)NC(=O)[C@H](CC(N)=O)NC(=O)[C@H](CC(=O)O)NC(C)=O)C(C)C)C(=O)N[C@H](C(=O)N[C@H](C(=O)N[C@@H](Cc1c[nH]c2ccccc12)C(=O)N[C@@H](CCC(=O)O)C(=O)N[C@@H](CCCCN)C(=O)N[C@@H](CCCCN)C(N)=O)C(C)C)[C@@H](C)CC` [Me-Ile2708], for which the IC50 in test [1] was 5.4 ± 0.3 µM. In test [4], this compound displayed a Kd of 14 ± 0.4 µM, a koff of 4.58 ± 0.04 s⁻¹ and a kon of 327000 ± 9000 M⁻¹ s⁻¹.

With `CC[C@H](C)[C@H](NC(=O)[C@H](CCC(=O)O)NC(=O)[C@H](CC(N)=O)NC(=O)[C@H](CC(=O)O)NC(C)=O)C(=O)N[C@@H](CCC(=O)O)C(=O)N(C)[C@H](C(=O)N[C@H](C(=O)N[C@H](C(=O)N[C@H](C(=O)N[C@@H](Cc1c[nH]c2ccccc12)C(=O)N[C@@H](CCC(=O)O)C(=O)N[C@@H](CCCCN)C(=O)N[C@@H](CCCCN)C(N)=O)C(C)C)[C@@H](C)CC)[C@@H](C)CC)C(C)C` [Me-Val2710], the IC50 in test [1] was > 100 µM. For the same compound, in test [4], the Kd was 388 ± 7 µM, the koff turned out to be 208 ± 1 s⁻¹ and the kon was 536000 ± 10000 M⁻¹ s⁻¹.

In the case of `CC[C@H](C)[C@H](NC(=O)[C@@H](NC(=O)[C@H](CCC(=O)O)NC(=O)[C@@H](NC(=O)[C@H](CCC(=O)O)N(C)C(=O)[C@H](CC(N)=O)NC(=O)[C@H](CC(=O)O)NC(C)=O)[C@@H](C)CC)C(C)C)C(=O)N[C@H](C(=O)N[C@H](C(=O)N[C@@H](Cc1c[nH]c2ccccc12)C(=O)N[C@@H](CCC(=O)O)C(=O)N[C@@H](CCCCN)C(=O)N[C@@H](CCCCN)C(N)=O)C(C)C)[C@@H](C)CC` [Me-Glu2707], the IC50 in test [1] was 12.4 ± 0.8 µM.

As to `CC[C@H](C)[C@H](NC(=O)[C@H](CCC(=O)O)NC(=O)[C@H](CC(N)=O)NC(=O)[C@H](CC(=O)O)NC(C)=O)C(=O)N[C@@H](CCC(=O)O)C(=O)N[C@H](C(=O)N[C@H](C(=O)N[C@H](C(=O)N[C@H](C(=O)N(C)[C@@H](Cc1c[nH]c2ccccc12)C(=O)N[C@@H](CCC(=O)O)C(=O)N[C@@H](CCCCN)C(=O)N[C@@H](CCCCN)C(N)=O)C(C)C)[C@@H](C)CC)[C@@H](C)CC)C(C)C` [Me-Trp2714], in test [1], the IC50 is > 100 µM and the “inhibitory potency relative to the parent SIM peptide (in words)” value is “significantly diminished inhibitory potency”.

`CC[C@H](C)[C@H](NC(=O)[C@H](CCC(=O)O)NC(=O)[C@H](CC(N)=O)NC(=O)[C@H](CC(=O)O)NC(C)=O)C(=O)N[C@@H](CCC(=O)O)C(=O)N[C@H](C(=O)N[C@H](C(=O)N[C@H](C(=O)N[C@H](C(=O)N[C@@H](Cc1c[nH]c2ccccc12)C(=O)N[C@@H](CCC(=O)O)C(=O)N[C@@H](CCCCN)C(=O)N(C)[C@@H](CCCCN)C(N)=O)C(C)C)[C@@H](C)CC)[C@@H](C)CC)C(C)C` [Me-Lys2717]: the IC50 in test [1] was 10 ± 0.4 µM. In test [4], this compound had a dissociation constant (Kd) of 13.6 ± 0.5 µM, a koff of 8.95 ± 0.12 s⁻¹ and a kon of 657000 ± 27000 M⁻¹ s⁻¹.

In the case of `CC[C@H](C)[C@H](NC(=O)[C@H](CCC(=O)O)NC(=O)[C@H](CC(N)=O)NC(=O)[C@H](CC(=O)O)NC(C)=O)C(=O)N[C@@H](CCC(=O)O)C(=O)N[C@H](C(=O)N[C@H](C(=O)N[C@H](C(=O)N[C@H](C(=O)N[C@@H](Cc1c[nH]c2ccccc12)C(=O)N(C)[C@@H](CCC(=O)O)C(=O)N[C@@H](CCCCN)C(=O)N[C@@H](CCCCN)C(N)=O)C(C)C)[C@@H](C)CC)[C@@H](C)CC)C(C)C` [Me-Glu2715], in test [1], the concentration for half-maximal inhibition (IC50) stood at 27.4 ± 1.9 µM.

In turn, `CC[C@H](C)[C@H](NC(=O)[C@@H](NC(=O)[C@H](CCC(=O)O)N(C)C(=O)[C@@H](NC(=O)[C@H](CCC(=O)O)NC(=O)[C@H](CC(N)=O)NC(=O)[C@H](CC(=O)O)NC(C)=O)[C@@H](C)CC)C(C)C)C(=O)N[C@H](C(=O)N[C@H](C(=O)N[C@@H](Cc1c[nH]c2ccccc12)C(=O)N[C@@H](CCC(=O)O)C(=O)N[C@@H](CCCCN)C(=O)N[C@@H](CCCCN)C(N)=O)C(C)C)[C@@H](C)CC` [Me-Glu2709] registered an IC50 in test [1] of 31.4 ± 3 µM.

On to `CC[C@H](C)[C@H](NC(=O)[C@H](CCC(=O)O)NC(=O)[C@H](CC(N)=O)NC(=O)[C@H](CC(=O)O)NC(C)=O)C(=O)N[C@@H](CCC(=O)O)C(=O)N[C@H](C(=O)N[C@H](C(=O)N(C)[C@H](C(=O)N[C@H](C(=O)N[C@@H](Cc1c[nH]c2ccccc12)C(=O)N[C@@H](CCC(=O)O)C(=O)N[C@@H](CCCCN)C(=O)N[C@@H](CCCCN)C(N)=O)C(C)C)[C@@H](C)CC)[C@@H](C)CC)C(C)C` [Me-Ile2712, Ac-DNEIEVI(NMe)IVWEKK-NH2], for which, in test [2], the “TΔS‡ass more favourable than parent by” value is on record as “≈ 11 kJ mol^−1”; the “ΔH‡ass more unfavourable than parent by” value is on record as “≈ 8 kJ mol^−1”; the “TΔS, Association (activation, kon)” value was 34.78 ± 0.502 kcal/mol; the “TΔS, Dissociation (activation, koff)” value was -3.51 ± 0.048 kcal/mol. Besides, in test [2], the “ΔG, Association (activation, kon)” value is 6.57 ± 0.526 kcal/mol; the “ΔG, Dissociation (activation, koff)” value was 15.5 ± 0.096 kcal/mol; the “ΔH, Association (activation, kon)” value is 41.23 ± 0.502 kcal/mol; the “ΔH, Dissociation (activation, koff)” value is 12 ± 0.072 kcal/mol. Further, in test [1], the IC50 amounted to 7.9 ± 1 µM. In test [3], the “decrease in ΔGbind relative to parent” value worked out at 0.72 kcal/mol; the “increase in enthalpy (ΔHbind) in comparison to the parent SIM peptide” value is ~2.87 kcal/mol; the “increase in entropy of binding (TΔSbind) in comparison to the parent SIM peptide” value is ~3.59 kcal/mol; the “TΔS, Binding (KD)” value is 38.67 ± 0.478 kcal/mol. Besides, the “ΔH, Binding (KD)” value in test [3] was determined as 29.92 ± 0.048 kcal/mol. Besides, in test [4], the Kd came out at 14.5 ± 0.9 µM, the koff came out at 5.9 ± 0.08 s⁻¹ and the kon worked out at 410000 ± 28000 M⁻¹ s⁻¹. Moreover, in test [4] (from KD values of 15N ZZ-exchange data at 5 °C), the “ΔΔG vs. parent (increase in affinity)” value was ~0.48 kcal/mol.

`CC[C@H](C)[C@H](NC(=O)[C@H](CCC(=O)O)NC(=O)[C@H](CC(N)=O)N(C)C(=O)[C@H](CC(=O)O)NC(C)=O)C(=O)N[C@@H](CCC(=O)O)C(=O)N[C@H](C(=O)N[C@H](C(=O)N[C@H](C(=O)N[C@H](C(=O)N[C@@H](Cc1c[nH]c2ccccc12)C(=O)N[C@@H](CCC(=O)O)C(=O)N[C@@H](CCCCN)C(=O)N[C@@H](CCCCN)C(N)=O)C(C)C)[C@@H](C)CC)[C@@H](C)CC)C(C)C` [Me-Asn2706] showed a half-maximal inhibitory concentration (IC50) in test [1] of 9.4 ± 0.5 µM.

For the compound `CC[C@H](C)[C@H](NC(=O)[C@H](CCC(=O)O)NC(=O)[C@H](CC(N)=O)NC(=O)[C@H](CC(=O)O)NC(C)=O)C(=O)N[C@@H](CCC(=O)O)C(=O)N[C@H](C(=O)N[C@H](C(=O)N[C@H](C(=O)N(C)[C@H](C(=O)N[C@@H](Cc1c[nH]c2ccccc12)C(=O)N[C@@H](CCC(=O)O)C(=O)N[C@@H](CCCCN)C(=O)N[C@@H](CCCCN)C(N)=O)C(C)C)[C@@H](C)CC)[C@@H](C)CC)C(C)C` [Me-Val2713], in test [1], the IC50 is > 100 µM and the “inhibitory potency relative to the parent SIM peptide (in words)” value was “significantly diminished inhibitory potency”.
